Assay results reported in US20120071471A1, “NOVEL BENZOXAZINONE DERIVATIVES USEFUL FOR THE TREATMENT OF CNS DISORDERS” (NEUROSEARCH A/S, priority 2009, published 2012).

Experiments:
female NMRI mice = assay: 6 Hz corneal stimulation psychomotor seizure model (anticonvulsant properties); type: in vivo; conditions: Mus musculus, 32 mA, 3 s corneal stimulation, N=8/group, read-out: ED50 (dose that would give a 50% protection from seizures)
Method: The evaluation of the anticonvulsant properties was carried out in female NMRI mice (20-25 g, Taconic, Denmark). The mice were housed in groups (8 per cage according to weight) with food and water available ad libitum The environment was temperature (20±2° C.) and humidity (55±15%) controlled, and consisted of a 12:12 h light-dark cycle (lights on 06:00 h). The experiments were performed according to the Danish Committee for Experiments on Animals. Psychomotor seizures were induced via corneal stimulation (6 Hz, 0.2 ms rectangular pulses at 32 mA for 3 s) using a Grass S48 stimulator, constant current unit (CCU1) and isolation unit (SIU5), all driven by a stimulus generator (Master-8, AMPI, Israel).
The pads of the corneal stimulator were soaked in 0.9% saline. The mice were restrained during corneal stimulation and released immediately after and observed for the presence or absence of seizure activity.
The duration of any of these seizure variables is 10-75 seconds. In the presence of any of the seizure variables the mice was labelled 0% protection, and if none of the above, the mice was labelled 100% protection.
For screening purposes, the test compound was tested at 1 dose at 1 time-point. In the case of protection of 3 or more out of 8 mice, the compound were further evaluated in dose response (N=8/group). […]

[1] = De Marchi et al., Journal of Pharmaceutical Sciences 1971 60 (11); cited from earlier work

SMILES	melting point	ED50 (female NMRI mice)	anticonvulsant activity [1]
NC(=O)CN1C(=O)OCc2cc(Br)ccc21 [Compound 1, 2-(6-bromo-2-oxo-4H-3,1-benzoxazin-1-yl)acetamide]	253.4 to 254.3 °C	13 mg/kg	–
NC(=O)CN1C(=O)OCc2ccccc21 [2-(2-oxo-4H-benzo[d][1,3]oxazin-1-yl)-acetamide]	–	–	biologically inactive
